The target of one assay is T1, CHK1 kinase (Homo sapiens, UniProt O14757).
T1 construct: purchased Promega V1941
T1 sequence (O14757 1-476): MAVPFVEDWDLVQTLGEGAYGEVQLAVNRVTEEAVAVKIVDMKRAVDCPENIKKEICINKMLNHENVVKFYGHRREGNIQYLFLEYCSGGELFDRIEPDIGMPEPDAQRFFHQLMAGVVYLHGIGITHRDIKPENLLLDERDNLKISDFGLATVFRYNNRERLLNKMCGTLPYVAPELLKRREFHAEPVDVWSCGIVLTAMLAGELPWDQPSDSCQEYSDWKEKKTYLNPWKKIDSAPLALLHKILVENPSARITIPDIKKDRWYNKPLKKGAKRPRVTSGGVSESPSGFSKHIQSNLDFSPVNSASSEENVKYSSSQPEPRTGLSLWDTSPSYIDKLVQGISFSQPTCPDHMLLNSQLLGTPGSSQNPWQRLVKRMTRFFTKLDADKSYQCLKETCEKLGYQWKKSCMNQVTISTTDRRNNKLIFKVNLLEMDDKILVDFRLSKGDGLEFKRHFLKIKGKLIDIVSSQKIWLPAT
The assay can be described thus: CHK1 kinase inhibition, ADP-Glo kinase assay. Format: biochemical. As to conditions: ATP 10 μM, CHK1 1 ng/well; for inhibition at 0.01 µM: compound concentration 10 nM, read-out: Inh % (inhibitory effect on CHK1 kinase activity); for IC50: read-out: IC50 (inhibitory effect on CHK1 kinase activity). A general note: In ADP-Glo the light output rises with the ADP produced.

Assay [1] relates to human pancreatic cancer cell SW1990. The assay can be described thus: Proliferation of SW1990 cells, MTT assay. As to conditions: SW1990, 120 h, 5 days treatment, read-out: IC50 (inhibition of proliferation of SW1990). The format is cell-based. As for the experimental part:
Newly revived SW1990 cells (purchased from Shanghai Fuheng Biology) were cultured and passaged for at least three generations before use. Cells were used at about 90% confluency for experiments. Cells were digested with trypsinase and centrifuged at 800 rpm for 5 minutes. The cell pellets were resuspended in fresh DMEM medium and cells were counted. Cells were seeded on 96-well cell culture plates at 5000 cells/well and incubated overnight at 37° C., 5% CO2. The stock solutions of the test substances (including the test compounds and the reference compound) were serially diluted to 8 concentrations with DMSO at a ratio of 1:3. 5 μL of each serially diluted solutions was added to 120 μL of medium (diluted by 25 times) and mixed by shaking. […] The cell culture plates were returned to incubator at 37° C. and 5% CO2 for 5 days. At the end of the treatment the cell viability was determined by MTT colorimetric assay. Cell culture medium in each well was replaced by 100 μL/well of serum-free fresh medium containing MTT (0.5 mg/mL), and the culture was continued for additional 4 hours. Medium was then discarded and 100 μL/well of DMSO was added.
Data was analyzed by GraphPad Prism 6.0. The inhibitory effects of compounds on cell proliferation were plotted based on cell viability vs. the logarithm of compound concentration. Cell viability %=(ODcompound−ODbackground)/(ODDMSO−ODbackground)×100.
(In general: Tetrazolium dyes change colour on reduction, which living cells bring about.)

The test system of assay [2] is human breast cancer cell HCC1806. Kind of assay: Proliferation of HCC1806 cells, MTT assay. As to conditions: HCC1806, 72 h, 3 days treatment, read-out: IC50 (inhibition of proliferation of HCC1806). The format is cell-based.
Assay [3] relates to human colon cancer cell LoVo. Kind of assay: Proliferation of LoVo cells, MTT assay. The format is cell-based. As to conditions: 96 h, 4 days treatment, read-out: IC50 (inhibition of proliferation of LoVo).

Drawing on patent publication US12492197B2, “3,5-disubstituted pyrazole compounds as kinase inhibitors and uses thereof” (IMPACT THERAPEUTICS (SHANGHAI), INC, priority 2019, dated 2025), this text covers inhibition and IC50 for 10 compounds.

For `COc1cccc(OC[C@@H]2CNCCO2)c1-c1cc(Nc2ccc(C#N)nc2)n[nH]1` [Example 2, (S)-5-((5-(2-methoxy-6-(morpholin-2-ylmethoxy)phenyl)-1H-pyrazol-3-yl)amino)picolinonitrile], the inhibition at 0.01 µM on CHK1 kinase stood at 85%. In addition, the IC50 in assay [1] was determined as 84.9 nM; in assay [2], 153 nM.

For the compound `COc1cccc(OC[C@H]2CNCCO2)c1-c1cc(Nc2cnc(C#N)cn2)n[nH]1` [Example 3, (R)-5-((5-(2-methoxy-6-(morpholin-2-ylmethoxy)phenyl)-1H-pyrazol-3-yl)amino)pyrazine-2-carbonitrile], the inhibition at 0.01 µM at CHK1 kinase amounted to 79%. Further, the IC50 in assay [1] came to 50.7 nM; in assay [2], 94.2 nM.

Take `COc1cccc(OC[C@@H]2CN(C)CCO2)c1-c1cc(Nc2cnc(C#N)cn2)n[nH]1` [Example 4, (S)-5-((5-(2-methoxy-6-((4-methylmorpholin-2-yl)methoxy)phenyl)-1H-pyrazol-3-yl)amino)pyrazine-2-carbonitrile]: at CHK1 kinase, the inhibition at 0.01 µM is 82%. The values for the IC50 in assay [1] and in assay [2] were 123 nM and 139 nM, respectively.

In the case of `COc1cccc(OC[C@@H]2CNCCO2)c1-c1cc(Nc2cnc(C(F)(F)F)cn2)n[nH]1` [Example 5, (S)—N-(5-(2-methoxy-6-(morpholin-2-ylmethoxy)phenyl)-1H-pyrazol-3-yl)-5-(trifluoromethyl)pyrazin-2-amine], the inhibition at 0.01 µM at CHK1 kinase was 50%. Besides, the IC50 was determined as 287 nM in assay [1] and 394 nM in assay [2].

For the compound `COc1cccc(OCC2CCNCC2)c1-c1cc(Nc2cnc(C#N)cn2)n[nH]1` [Example 12, 5-((5-(2-methoxy-6-(piperidin-4-ylmethoxy)phenyl)-1H-pyrazol-3-yl)amino)pyrazine-2-carbonitrile], the IC50 on CHK1 kinase amounted to 0.72 nM; in assay [1], 10.1 nM; in assay [2], 13.9 nM.

Take `COc1cccc(OC[C@H]2CCNC2)c1-c1cc(Nc2cnc(C#N)cn2)n[nH]1` [Example 13, (S)-5-((5-(2-methoxy-6-(pyrrolidin-3-ylmethoxy)phenyl)-1H-pyrazol-3-yl)amino)pyrazine-2-carbonitrile]: the figures for the IC50 (at CHK1 kinase; in assay [1]; in assay [2]) were 0.45 nM, 1.9 nM and 2.1 nM, respectively.

Regarding `COc1c(Cl)ccc(OC[C@@H]2CNCCO2)c1-c1cc(Nc2cnc(C#N)cn2)n[nH]1` [Example 15, (S)-5-((5-(3-chloro-2-methoxy-6-(morpholin-2-ylmethoxy)phenyl)-1H-pyrazol-3-yl)amino)pyrazine-2-carbonitrile], the inhibition at 0.01 µM at CHK1 kinase amounted to 40%. In addition, the IC50 is 809 nM in assay [1] and more than 1000 nM in assay [2].

In the case of `COc1cc(Cl)cc(OC[C@@H]2CNCCO2)c1-c1cc(Nc2cnc(C#N)cn2)n[nH]1` [Example 16, (S)-5-((5-(4-chloro-2-methoxy-6-(morpholin-2-ylmethoxy)phenyl)-1H-pyrazol-3-yl)amino)pyrazine-2-carbonitrile], the inhibition at 0.01 µM on CHK1 kinase was 93%. Moreover, the IC50 in assay [1] and in assay [2] was 11.8 nM each time.

As to `COc1ccc(Cl)c(OC[C@@H]2CNCCO2)c1-c1cc(Nc2cnc(C#N)cn2)n[nH]1` [Example 17, (S)-5-((5-(3-chloro-6-methoxy-2-(morpholin-2-ylmethoxy)phenyl)-1H-pyrazol-3-yl)amino)pyrazine-2-carbonitrile], the inhibition at 0.01 µM on CHK1 kinase worked out at 50%. In addition, the IC50 in assay [1] stood at 615 nM; in assay [2] it was 895 nM.

With `COc1cccc(OC[C@H]2CNCCS2)c1-c1cc(Nc2cnc(C#N)cn2)n[nH]1` [Example 76-B, (R)-5-((5-(2-methoxy-6-(thiomorpholin-2-ylmethoxy)phenyl)-1H-pyrazol-3-yl)amino)pyrazine-2-carbonitrile], the IC50 at CHK1 kinase was determined as 1.21 nM; in assay [3] it was 17.8 nM; in assay [2], 18.5 nM.
